Measurements taken from ChEMBL document CHEMBL4483862, “Open-source discovery of chemical leads for next-generation chemoprotective antimalarials” (2018).

System: Plasmodium berghei
Experiment: Luciferase/luciferin-expressing antifolate-resistant parasites were used to infect a culture of HepG2 cells that were pre-incubated with compounds. Infected hepatocytes emit light due to the luciferase reaction. Assay results are presented as the percent inhibition of light emission compared to control. […]
Type: functional
Conditions: sporozoite; for IC90: read-out: LUCIFERASE INFECTION ASSAY - IC90

Row | SMILES | IC90 [µM] | also measured
1 | CCOC(=O)c1c(NC(=O)C(C)N2CCN(C(=O)c3ccco3)CC2)sc2c1CCCC2 (stereo not given) | > 10 | IC50 (PBLUC_HILL_SLOPE 16.5, PBLUC_R_SQUARED 0.188, read-out: LUCIFERASE INFECTION ASSAY - IC50): 9.7 µM
2 | O=C(Nc1csc([N+](=O)[O-])c1)Nc1ccccc1Cl | > 11.1 | IC50 (PBLUC_HILL_SLOPE 16.6, PBLUC_R_SQUARED 0.0194, read-out: LUCIFERASE INFECTION ASSAY - IC50): 11 µM
3 | COc1ccc2nc(C)cc(NCc3cccc(C(F)(F)F)c3)c2c1 | 3.24 | IC50 (PBLUC_HILL_SLOPE 17.2, PBLUC_R_SQUARED 0.454, read-out: LUCIFERASE INFECTION ASSAY - IC50): 2.85 µM
4 | CC(C)S(=O)(=O)c1csc(NC(=O)Nc2ccc(Cl)cc2)c1 | 3.33 | IC50 (PBLUC_HILL_SLOPE 17.2, PBLUC_R_SQUARED 0.385, read-out: LUCIFERASE INFECTION ASSAY - IC50): 2.93 µM
5 | COc1ccc(-c2cc(C(=O)NNC3=NCCC3)c3c(C)nn(-c4ccccc4)c3n2)cc1 | > 10 | IC50 (PBLUC_HILL_SLOPE 16.7, PBLUC_R_SQUARED 0.16, read-out: LUCIFERASE INFECTION ASSAY - IC50): 9.26 µM
6 | COc1ccc(-c2cc3ncc(-c4ccccc4)c(N)n3n2)cc1 | 4.1 | IC50 (PBLUC_HILL_SLOPE 17.3, PBLUC_R_SQUARED 0.589, read-out: LUCIFERASE INFECTION ASSAY - IC50): 3.61 µM
7 | OCCNCc1cc(Br)ccc1OCc1ccc(F)cc1 | 3.12 | IC50 (PBLUC_HILL_SLOPE 16.8, PBLUC_R_SQUARED 0.362, read-out: LUCIFERASE INFECTION ASSAY - IC50): 2.74 µM
8 | OC(COc1ccc(Cl)cc1)CN1CCC(Cc2ccccc2)CC1 (stereo not given) | 8.19 | IC50 (PBLUC_HILL_SLOPE 16.8, 4.66, PBLUC_R_SQUARED 0.391, 0.0786, read-out: LUCIFERASE INFECTION ASSAY - IC50): 6.33 µM
9 | N#Cc1ccc(NC(=O)NNc2ccc(Cl)cc2Cl)cc1 | > 10 | IC50 (PBLUC_HILL_SLOPE 16.6, PBLUC_R_SQUARED 0.338, read-out: LUCIFERASE INFECTION ASSAY - IC50): 9.59 µM
10 | Cc1ccn2c(=O)cc(CN3C(=O)NC4(CCCc5ccccc54)C3=O)nc2c1 (stereo not given) | > 10 | IC50 (PBLUC_HILL_SLOPE 16.8, PBLUC_R_SQUARED 0.349, read-out: LUCIFERASE INFECTION ASSAY - IC50): 9.44 µM
11 | CC(C)S(=O)(=O)c1csc(NC(=O)Nc2cccc(Cl)c2)c1 | > 9.2 | IC50 (PBLUC_HILL_SLOPE 17.1, PBLUC_R_SQUARED 0.0949, read-out: LUCIFERASE INFECTION ASSAY - IC50): 8.62 µM
12 | CCOC(=O)c1sc(NC(=O)c2ccc([N+](=O)[O-])s2)nc1C | 3.85 | IC50 (PBLUC_HILL_SLOPE 17.3, PBLUC_R_SQUARED 0.599, read-out: LUCIFERASE INFECTION ASSAY - IC50): 3.39 µM
13 | CCOC(=O)c1[nH]c(C)c(C(=O)CN(C)S(=O)(=O)c2c(C)noc2C)c1C | 3.73 | IC50 (PBLUC_HILL_SLOPE 16.9, PBLUC_R_SQUARED 0.509, read-out: LUCIFERASE INFECTION ASSAY - IC50): 3.28 µM
14 | c1ccc(C(Nc2ncnc3sccc23)c2ccco2)cc1 (stereo not given) | > 10 | IC50 (PBLUC_HILL_SLOPE 17.3, PBLUC_R_SQUARED 0.0145, read-out: LUCIFERASE INFECTION ASSAY - IC50): 8.98 µM
15 | NNc1cc(C(F)(F)F)nc(C(F)(F)F)c1 | 13 | IC50 (PBLUC_HILL_SLOPE 17.4, PBLUC_R_SQUARED 0.11, read-out: LUCIFERASE INFECTION ASSAY - IC50): 11.5 µM
16 | Cc1ccc(Oc2ccc(NC(=O)CCc3cccnc3)cc2)cc1 | 9.55 | IC50 (PBLUC_HILL_SLOPE 16.6, PBLUC_R_SQUARED 0.382, read-out: LUCIFERASE INFECTION ASSAY - IC50): 8.37 µM
17 | CN(Cc1ccc(C(=O)NC2CC2)cc1)S(=O)(=O)c1ccc(Br)s1 | 9.55 | IC50 (PBLUC_HILL_SLOPE 16.6, PBLUC_R_SQUARED 0.228, read-out: LUCIFERASE INFECTION ASSAY - IC50): 8.37 µM
18 | COc1cc2c(cc1NC(=O)c1cnn(C(C)(C)C)c1C)oc1ccccc12 | 3.66 | IC50 (PBLUC_HILL_SLOPE 16.6, PBLUC_R_SQUARED 0.596, read-out: LUCIFERASE INFECTION ASSAY - IC50): 3.21 µM
19 | CC(C1CC2CCC1C2)N1C(=O)C(=O)N(CC(=O)Nc2cccc(F)c2)C1=O (stereo not given) | 3.86 | IC50 (PBLUC_HILL_SLOPE 16.7, 2.98, PBLUC_R_SQUARED 0.617, 0.740, read-out: LUCIFERASE INFECTION ASSAY - IC50): 4.13 µM
20 | Cc1cccc2sc(C(=O)NCc3cccc(NS(N)(=O)=O)c3)c(Cl)c12 | 1.3 | IC50 (PBLUC_HILL_SLOPE 16.9, PBLUC_R_SQUARED 0.264, read-out: LUCIFERASE INFECTION ASSAY - IC50): 1.14 µM

Row | SMILES | IC90 [µM] | also measured
21 | CCOc1ccc(-c2nc(C(=O)Nc3ncccc3O)cs2)cc1 | 3.84 | IC50 (PBLUC_HILL_SLOPE 16.6, PBLUC_R_SQUARED 0.386, read-out: LUCIFERASE INFECTION ASSAY - IC50): 3.36 µM
22 | CCc1ccc(CN2CCc3c(c(C(=O)N4CCCC(O)C4)nn3Cc3cccc(OC)c3)C2)cc1 (stereo not given) | > 6.75 | IC50 (PBLUC_HILL_SLOPE 17.4, PBLUC_R_SQUARED 0.568, read-out: LUCIFERASE INFECTION ASSAY - IC50): 6.43 µM
23 | COc1ccc(NC(=O)c2cccc(C3(CNCc4ccc(F)c(F)c4)CC3)c2)cn1 | > 10 | IC50 (PBLUC_HILL_SLOPE 17.1, PBLUC_R_SQUARED 0.0793, read-out: LUCIFERASE INFECTION ASSAY - IC50): 9.92 µM
24 | CCOc1ccc(NCC(=O)c2ccc(-c3ccccc3)cc2)cc1 | > 10 | IC50 (PBLUC_HILL_SLOPE 16.8, 2.19, PBLUC_R_SQUARED 0.173, 0.582, read-out: LUCIFERASE INFECTION ASSAY - IC50): 8.7 µM
25 | CC(C)Cc1nc(N2CCNCC2)c(C#N)c2c1CCCC2 | > 11.1 | IC50 (PBLUC_HILL_SLOPE 17, PBLUC_R_SQUARED 0.257, read-out: LUCIFERASE INFECTION ASSAY - IC50): 10 µM
26 | CCOC(=O)c1sc(N)c(C#N)c1CSc1nnc(Cc2cccc3ccccc23)n1C1CCCCC1 | 9.87 | IC50 (PBLUC_HILL_SLOPE 16.7, PBLUC_R_SQUARED 0.489, read-out: LUCIFERASE INFECTION ASSAY - IC50): 8.65 µM
27 | O=C(NCCN1CCc2ccccc2C1)c1cc2ccccc2cc1O | 3.77 | IC50 (PBLUC_HILL_SLOPE 16.8, PBLUC_R_SQUARED 0.317, read-out: LUCIFERASE INFECTION ASSAY - IC50): 3.31 µM
28 | CC1CCC(N(C)C(=O)C2CCN(S(=O)(=O)c3ccc4c(c3)CCC4)CC2)CC1 (stereo not given) | > 10 | IC50 (PBLUC_HILL_SLOPE 16.6, PBLUC_R_SQUARED 0.0251, read-out: LUCIFERASE INFECTION ASSAY - IC50): 9.82 µM
29 | O=c1c2ccccc2nc(SCc2cn3cc(Cl)ccc3n2)n1-c1ccccc1F | > 10 | IC50 (PBLUC_HILL_SLOPE 16.9, PBLUC_R_SQUARED 0.0163, read-out: LUCIFERASE INFECTION ASSAY - IC50): 8.93 µM
30 | COCOc1ccc(-c2cc(-c3ccc(N)nc3)cnc2N)cc1 | 3.91 | IC50 (PBLUC_HILL_SLOPE 17.1, PBLUC_R_SQUARED 0.834, read-out: LUCIFERASE INFECTION ASSAY - IC50): 3.44 µM
31 | Cc1c(/N=c2\scc(-c3cc4ccccc4o3)n2/N=C/c2ccsc2)c(=O)n(-c2ccccc2)n1C | 4.03 | IC50 (PBLUC_HILL_SLOPE 16.9, PBLUC_R_SQUARED 0.235, read-out: LUCIFERASE INFECTION ASSAY - IC50): 3.54 µM
32 | CCCn1c(NC(=O)CSc2ccc3c4c(cccc24)C(=O)c2ccccc2-3)nc2ccccc21 | 3.87 | IC50 (PBLUC_HILL_SLOPE 16.8, PBLUC_R_SQUARED 0.332, read-out: LUCIFERASE INFECTION ASSAY - IC50): 3.39 µM
33 | CCc1ccc(-n2c(SC3CCCCC3NS(=O)(=O)c3ccccc3)nc3ccccc3c2=O)cc1 (stereo not given) | 4.14 | IC50 (PBLUC_HILL_SLOPE 16.5, PBLUC_R_SQUARED 0.215, read-out: LUCIFERASE INFECTION ASSAY - IC50): 3.63 µM
34 | CCOC(=O)c1nn(Cc2cccc(OC)c2)c2c1CN(C(=O)c1cc3ccccc3o1)CC2 | > 7.18 | IC50 (PBLUC_HILL_SLOPE 17.5, PBLUC_R_SQUARED 0.669, read-out: LUCIFERASE INFECTION ASSAY - IC50): 7.12 µM
35 | COc1ccc(OCC(N)=NC(=S)Nc2cccc(C(F)(F)F)c2)cc1 | > 8.61 | IC50 (PBLUC_HILL_SLOPE 17.2, PBLUC_R_SQUARED 0.0649, read-out: LUCIFERASE INFECTION ASSAY - IC50): > 8.61 µM
36 | Cc1cccc(-c2cn3c(-c4cccc(C(=O)N5CCN(C)CC5)c4)cnc3cn2)c1C | 3 | IC50 (PBLUC_HILL_SLOPE 16.5, PBLUC_R_SQUARED 0.755, read-out: LUCIFERASE INFECTION ASSAY - IC50): 2.63 µM
37 | COc1ccccc1N(C)S(=O)(=O)c1ccc(C)c(C(=O)Nc2nc3ccccc3s2)c1 | 8.14 | IC50 (PBLUC_HILL_SLOPE 17.5, PBLUC_R_SQUARED 0.446, read-out: LUCIFERASE INFECTION ASSAY - IC50): 7.18 µM
38 | Cc1c(C(=O)Nc2ccc(Oc3ccccc3)cc2)[nH]c2c1C(=O)CCC2 | > 10 | IC50 (PBLUC_HILL_SLOPE 16.6, PBLUC_R_SQUARED 0.701, read-out: LUCIFERASE INFECTION ASSAY - IC50): 9.52 µM
39 | CC(=O)Nc1cccc(-n2nnnc2Sc2ccc([N+](=O)[O-])cc2C#N)c1 | 9.5 | IC50 (PBLUC_HILL_SLOPE 17.4, PBLUC_R_SQUARED 0.386, read-out: LUCIFERASE INFECTION ASSAY - IC50): 8.38 µM
40 | Fc1ccc(-c2cc3ncnc(N4CCN(CCN5CCCC5)CC4)c3s2)cc1 | > 10 | IC50 (PBLUC_HILL_SLOPE 17, PBLUC_R_SQUARED 0.345, read-out: LUCIFERASE INFECTION ASSAY - IC50): 9.86 µM
